System: cancer cell lines HCT-116, SCC VII, and A549
Assay type: cell-based

O=C(CBr)N1CC([N+](=O)[O-])([N+](=O)[O-])C1 [Sample 2, 2-bromo-1-(3,3-dinitroazetidin-1-yl)ethanone]
suppressing viability of cancer cell lines, compared to impact sensitive form of ABDNAZ (samples 1 and 3): more effective

— patent publication US20240293360A1 (priority 2021, published 2024)
